Results as given in patent publication EP4635500A1, “THERAPEUTIC AGENT FOR BACTERIAL INFECTION” (Sumitomo Pharma Co., Ltd., priority 2022, dated 2024).
In brackets after ≈: the same amount, converted by molar mass. Like-named read-outs stand apart in the source and are kept apart here.

What was measured:
[1] = tested on: 53 CRE and CPE strains; test: MICrange, MIC50, MIC80, MIC90 for 53 bacterial isolates (Example 5, Table 5); type: cell-based; details: 53 bacterial isolates
[2] = tested on: Enterobacterales; test: MIC, broth microdilution, CDC/FDA Antibiotic Resistance Isolate Bank (Example 7, Tables 8, 11, 12); type: cell-based; details: for MIC: read-out: MIC

For `NCC[C@H](O)C(=O)N[C@@H]1C[C@H](N)[C@@H](O[C@H]2O[C@H](CN)[C@@H](O)[C@H](O)[C@H]2O)[C@H](O)[C@H]1O[C@H]1O[C@H](CO)[C@@H](O)[C@H](N)[C@H]1O` [Amikacin, amikacin], the MIC50 ([1]; read-out: MIC50) was 2 µg/mL (≈ 3.42 µM), the MIC80 ([1]; read-out: MIC80) was 32 µg/mL (≈ 54.6 µM) and the MIC90 ([1]; read-out: MIC90) was > 64 µg/mL. For the same compound, the MIC50 ([2]; 154 strains of Enterobacterales, read-out: MIC50) was 4 µg/mL (≈ 6.83 µM), the MIC90 ([2]; 154 strains of Enterobacterales, read-out: MIC90) was > 64 µg/mL and the MIC ([2]; Citrobacter freundii, KUB No. 5654, AR Bank # 157) was > 64 µg/mL. For the same compound, the MIC ([2]; Enterobacter cloacae, Enterobacter cloacae KUB No. 5792, AR Bank #448) was 16 µg/mL (≈ 27.3 µM), the MIC ([2]; Enterobacter cloacae, Enterobacter cloacae KUB No. 5807, AR Bank #501) was 4 µg/mL (≈ 6.83 µM) and the MIC ([2]; Enterobacter cloacae, Enterobacter cloacae KUB No. 5808, AR Bank #502) was 2 µg/mL (≈ 3.42 µM). The MIC ([2]; Enterobacter cloacae, Enterobacter cloacae complex, KUB No. 5661, AR Bank # 164) was 1 µg/mL (≈ 1.71 µM), the MIC ([2]; Enterobacter cloacae, Enterobacter cloacae group, KUB No. 5629, AR Bank # 132) was 1 µg/mL (≈ 1.71 µM) and the MIC ([2]; Enterobacter cloacae, KUB No. 5529, AR Bank# 32) was 1 µg/mL (≈ 1.71 µM). For the same compound, the MIC ([2]; Enterobacter cloacae, KUB No. 5535, AR Bank# 38) was > 64 µg/mL, the MIC ([2]; Enterobacter cloacae, KUB No. 5547, AR Bank# 50) was 1 µg/mL (≈ 1.71 µM) and the MIC ([2]; Enterobacter cloacae, KUB No. 5550, AR Bank# 53) was 64 µg/mL (≈ 109 µM). For the same compound, the MIC ([2]; Enterobacter cloacae, KUB No. 5557, AR Bank# 60) was 1 µg/mL (≈ 1.71 µM), the MIC ([2]; Enterobacter cloacae, KUB No. 5562, AR Bank # 65) was 1 µg/mL (≈ 1.71 µM) and the MIC ([2]; Enterobacter cloacae, KUB No. 5569, AR Bank # 72) was 1 µg/mL (≈ 1.71 µM). It also gave an MIC ([2]; Enterobacter cloacae, KUB No. 5570, AR Bank # 73) of 0.25 µg/mL (≈ 0.427 µM), an MIC ([2]; Enterobacter cloacae, KUB No. 5590, AR Bank # 93) of 2 µg/mL (≈ 3.42 µM) and an MIC ([2]; Enterobacter cloacae, KUB No. 5660, AR Bank # 163) of 4 µg/mL (≈ 6.83 µM). It also gave an MIC ([2]; Enterobacter cloacae, KUB No. 5761, AR Bank # 365) of 16 µg/mL (≈ 27.3 µM), an MIC ([2]; Enterobacter cloacae, KUB No. 5762, AR Bank # 366) of 4 µg/mL (≈ 6.83 µM) and an MIC ([2]; Enterobacter cloacae, KUB No. 5763, AR Bank # 367) of 1 µg/mL (≈ 1.71 µM). For the same compound, the MIC ([2]; Enterobacter cloacae, KUB No. 5778, AR Bank # 432) was 2 µg/mL (≈ 3.42 µM), the MIC ([2]; Enterobacter cloaccae, KUB No. 5651, AR Bank # 154) was 8 µg/mL (≈ 13.7 µM) and the MIC ([2]; Enterobacter clooreae, KUB No. 5633, AR Bank # 136) was 2 µg/mL (≈ 3.42 µM). For the same compound, the MIC ([2]; Escherichia coli, Escherichia coli KUB No. 5783, AR Bank #437) was 2 µg/mL (≈ 3.42 µM), the MIC ([2]; Escherichia coli, Escherichia coli KUB No. 5794, AR Bank #450) was 2 µg/mL (≈ 3.42 µM) and the MIC ([2]; Escherichia coli, Escherichia coli KUB No. 5795, AR Bank #451) was 8 µg/mL (≈ 13.7 µM). The MIC ([2]; Escherichia coli, Escherichia coli KUB No. 5796, AR Bank #452) was 1 µg/mL (≈ 1.71 µM), the MIC ([2]; Escherichia coli, Escherichia coli KUB No. 5803, AR Bank #861) was 1 µg/mL (≈ 1.71 µM) and the MIC ([2]; Escherichia coli, KUB No. 5558, AR Bank # 61) was 16 µg/mL (≈ 27.3 µM). The MIC ([2]; Escherichia coli, KUB No. 5564, AR Bank # 67) was 2 µg/mL (≈ 3.42 µM), the MIC ([2]; Escherichia coli, KUB No. 5566, AR Bank # 69) was 16 µg/mL (≈ 27.3 µM) and the MIC ([2]; Escherichia coli, KUB No. 5574, AR Bank # 77) was 1 µg/mL (≈ 1.71 µM). For the same compound, the MIC ([2]; Escherichia coli, KUB No. 5578, AR Bank # 81) was 2 µg/mL (≈ 3.42 µM), the MIC ([2]; Escherichia coli, KUB No. 5581, AR Bank # 84) was 0.5 µg/mL (≈ 0.854 µM) and the MIC ([2]; Escherichia coli, KUB No. 5582, AR Bank # 85) was 1 µg/mL (≈ 1.71 µM). It also gave an MIC ([2]; Escherichia coli, KUB No. 5583, AR Bank # 86) of 1 µg/mL (≈ 1.71 µM), an MIC ([2]; Escherichia coli, KUB No. 5586, AR Bank # 89) of 1 µg/mL (≈ 1.71 µM) and an MIC ([2]; Escherichia coli, KUB No. 5601, AR Bank # 104) of 1 µg/mL (≈ 1.71 µM). For the same compound, the MIC ([2]; Escherichia coli, KUB No. 5611, AR Bank # 114) was 1 µg/mL (≈ 1.71 µM), the MIC ([2]; Escherichia coli, KUB No. 5615, AR Bank # 118) was > 64 µg/mL and the MIC ([2]; Escherichia coli, KUB No. 5616, AR Bank # 119) was > 64 µg/mL. For the same compound, the MIC ([2]; Escherichia coli, KUB No. 5625, AR Bank # 128) was > 64 µg/mL, the MIC ([2]; Escherichia coli, KUB No. 5634, AR Bank # 137) was 16 µg/mL (≈ 27.3 µM) and the MIC ([2]; Escherichia coli, KUB No. 5646, AR Bank # 149) was 2 µg/mL (≈ 3.42 µM). For the same compound, the MIC ([2]; Escherichia coli, KUB No. 5647, AR Bank # 150) was 0.5 µg/mL (≈ 0.854 µM), the MIC ([2]; Escherichia coli, KUB No. 5648, AR Bank # 151) was 1 µg/mL (≈ 1.71 µM) and the MIC ([2]; Escherichia coli, KUB No. 5659, AR Bank # 162) was 1 µg/mL (≈ 1.71 µM). For the same compound, the MIC ([2]; Escherichia coli, KUB No. 5764, AR Bank # 368) was 2 µg/mL (≈ 3.42 µM), the MIC ([2]; Escherichia coli, KUB No. 5765, AR Bank # 369) was 2 µg/mL (≈ 3.42 µM) and the MIC ([2]; Escherichia coli, KUB No. 5766, AR Bank # 370) was 4 µg/mL (≈ 6.83 µM). For the same compound, the MIC ([2]; Escherichia coli, KUB No. 5767, AR Bank # 371) was 0.5 µg/mL (≈ 0.854 µM), the MIC ([2]; Escherichia coli, KUB No. 5768, AR Bank # 372) was 2 µg/mL (≈ 3.42 µM) and the MIC ([2]; Escherichia coli, KUB No. 5769, AR Bank # 373) was 1 µg/mL (≈ 1.71 µM). It also gave an MIC ([2]; Escherichia coli, KUB No. 5770, AR Bank # 374) of 1 µg/mL (≈ 1.71 µM), an MIC ([2]; Escherichia coli, KUB No. 5774, AR Bank # 378) of 1 µg/mL (≈ 1.71 µM) and an MIC ([2]; Escherichia coli, KUB No. 5779, AR Bank # 433) of 0.5 µg/mL (≈ 0.854 µM). For the same compound, the MIC ([2]; Escherichia coli, KUB No. 5780, AR Bank # 434) was 16 µg/mL (≈ 27.3 µM), the MIC ([2]; Escherichia coli, KUB No. 5781, AR Bank # 435) was > 64 µg/mL and the MIC ([2]; Escherichia, KUB No. 57, AR Bank # 436 (row cut off)) was 1 µg/mL (≈ 1.71 µM). The MIC ([2]; Klebsiella aerogenes, Enterobacter aerogenes, KUB No. 5559, AR Bank # 62) was 2 µg/mL (≈ 3.42 µM), the MIC ([2]; Klebsiella aerogenes, Enterobacter aerogenes, KUB No. 5571, AR Bank # 74) was 2 µg/mL (≈ 3.42 µM) and the MIC ([2]; Klebsiella aerogenes, Enterobacter aerogenes, KUB No. 5658, AR Bank # 161) was 2 µg/mL (≈ 3.42 µM). It also gave an MIC ([2]; Klebsiella aerogenes, Enterobacter aerogenes, KUB No. 5777, AR Bank # 431) of 0.5 µg/mL (≈ 0.854 µM), an MIC ([2]; Klebsiella oxytoca, KUB No. 5568, AR Bank # 71) of 0.5 µg/mL (≈ 0.854 µM) and an MIC ([2]; Klebsiella oxytoca, KUB No. 5644, AR Bank # 147) of 0.5 µg/mL (≈ 0.854 µM). For the same compound, the MIC ([2]; Klebsiella oxytoca, KUB No. 5771, AR Bank # 375) was 4 µg/mL (≈ 6.83 µM), the MIC ([2]; Klebsiella oxytoca, KUB No. 5776, AR Bank # 380) was 1 µg/mL (≈ 1.71 µM) and the MIC ([2]; Klebsiella ozaenae, KUB No. 5548, AR Bank# 51) was > 64 µg/mL. The MIC ([2]; Klebsiella ozaenae, KUB No. 5593, AR Bank # 96) was 8 µg/mL (≈ 13.7 µM), the MIC ([2]; Klebsiella pnemnonine, KUB No. 5758, AR Bank # 362) was 32 µg/mL (≈ 54.6 µM) and the MIC ([2]; Klebsiella pneumoniae, KUB No. 55, AR Bank# 47) was 32 µg/mL (≈ 54.6 µM). For the same compound, the MIC ([2]; Klebsiella pneumoniae, KUB No. 5531, AR Bank# 34) was 1 µg/mL (≈ 1.71 µM), the MIC ([2]; Klebsiella pneumoniae, KUB No. 5536, AR Bank# 39) was 4 µg/mL (≈ 6.83 µM) and the MIC ([2]; Klebsiella pneumoniae, KUB No. 5537, AR Bank# 40) was 32 µg/mL (≈ 54.6 µM).
